# Data published in US20070202141A1, “Synthetic Aggregation Pheromone For Manipulating The Behaviour Of Codling Moth, Cydia Pomonella, Larvae” (PHERO TECH INC., priority 2004, published 2007).
# Tested on: female Mastrus ridibundus antenna
# Assay: coupled gas chromatographic-electroantennographic detection (GC-EAD)
# Conditions: Porapak Q extract of cocoon-spinning larvae; FIG. 2
# Description: Aliquots of 20 CSLHE of Porapak Q-captured volatiles were subjected to analysis by coupled gas chromatographic-electroantennographic detection (GC-EAD) (Arm et al. 1975) using an antenna of Mastrus ridibundus, a specialist parasitic wasp of C. pomonella prepupae, as the electroantennographic detector. Using antennae from female M. ridibundus, instead of C. pomonella larvae, in these analyses was necessary because the antennae of C. pomonella larvae are too small for electrophysiolocial studies. It was also justified because host-seeking female M. ridibundus respond to the pheromone produced by cocoon-spinning C. pomonella larvae. In these GC-EAD analyses, 10 components (8 visible in FIG. 2) elicited responses from M. ridibundus antennae.
# FIG. 2 illustrates flame ionization detector (FID) and electroantennographic detector (EAD: female Mastrus ridibundus antenna) responses to 10 CSLHE of Porapak Q extract. Chromatography: Hewlett Packard (HP) 5890A gas chromatograph equipped with a fused silica column (30 m×0.32 mm ID) coated with DB-23 (J & W Scientific, Folsom, Calif. 95630, USA); linear flow velocity of carrier gas: 35 cm/sec; injector and FID detector temperature: 240° C.; temperature program: 1 min at 50° C., 10° C./min to 220° C. […]
smiles,measurement,value
"C=C(C)C1CC=C(C)CC1 (single isomer, unassigned; (+)) [(+)-limonene]",electroantennographic detector (EAD) response,not antenally active
